Test system: A2780
Assay: In vitro cytotoxicity of compound was determined against A2780 cell lines (cisplatin resistant) at 37 degree C after 96 hr
Assay type: functional, Homo sapiens
Conditions: not given

SMILES	Cytotoxicity [µM]
COc1cc2c(cc1OCc1ccccc1)N=C[C@@H]1CC(CC#N)=CN1C2=O	0.43
COc1cc2c(cc1OCc1ccccc1)N=C[C@@H]1CC(CCOC(C)=O)=CN1C2=O	0.27
Cc1ccc2c(c1O)N=C[C@@H]1CC(/C=C/C(N)=O)=CN1C2=O	0.16
COC(=O)CC1=CN2C(=O)c3cc(OC)c(OC)cc3N=C[C@@H]2C1	0.46
COc1cc2c(cc1OCc1ccccc1)N=C[C@@H]1CC(CCO)=CN1C2=O	0.105
COc1cc2c(cc1OCc1ccccc1)N=C[C@@H]1CCCN1C2=O	0.48
COC(=O)CC1=CN2C(=O)c3cc(OC)c(OCc4ccccc4)cc3N=C[C@@H]2C1	0.12

Test system: A2780
Assay: In vitro cytotoxicity of compound was determined against A2780 cell lines at 37 degree C after 96 hr
Assay type: functional, Homo sapiens
Conditions: not given

SMILES	Cytotoxicity [µM]
COc1cc2c(cc1OCc1ccccc1)N=C[C@@H]1CC(CC#N)=CN1C2=O	0.155
COc1cc2c(cc1OCc1ccccc1)N=C[C@@H]1CC(CCOC(C)=O)=CN1C2=O	0.1
Cc1ccc2c(c1O)N=C[C@@H]1CC(/C=C/C(N)=O)=CN1C2=O	0.155
COC(=O)CC1=CN2C(=O)c3cc(OC)c(OC)cc3N=C[C@@H]2C1	0.36
COc1cc2c(cc1OCc1ccccc1)N=C[C@@H]1CC(CCO)=CN1C2=O	0.07
COc1cc2c(cc1OCc1ccccc1)N=C[C@@H]1CCCN1C2=O	0.17
COC(=O)CC1=CN2C(=O)c3cc(OC)c(OCc4ccccc4)cc3N=C[C@@H]2C1	0.0145

Test system: Nucleic Acid
Assay: Change in temperature (thermal denaturation) was determined from calf thymus DNA at 37 degree Celsius for 0 hours
Assay type: functional
Conditions: Bos taurus

SMILES	ΔTm [°C]
COc1cc2c(cc1OCc1ccccc1)N=C[C@@H]1CC(CC#N)=CN1C2=O	1.84
COc1cc2c(cc1OCc1ccccc1)N=C[C@@H]1CC(CCOC(C)=O)=CN1C2=O	1.57
Cc1ccc2c(c1O)N=C[C@@H]1CC(/C=C/C(N)=O)=CN1C2=O	9.4
COC(=O)CC1=CN2C(=O)c3cc(OC)c(OC)cc3N=C[C@@H]2C1	3.41
COc1cc2c(cc1OCc1ccccc1)N=C[C@@H]1CC(CCO)=CN1C2=O	3.98
COc1cc2c(cc1OCc1ccccc1)N=C[C@@H]1CCCN1C2=O	0.2
COC(=O)CC1=CN2C(=O)c3cc(OC)c(OCc4ccccc4)cc3N=C[C@@H]2C1	3.08

Test system: Nucleic Acid
Assay: Change in temperature (thermal denaturation) was determined from calf thymus DNA at 37 degree Celsius for 36 hours
Assay type: functional
Conditions: Bos taurus

SMILES	ΔTm [°C]
COC(=O)CC1=CN2C(=O)c3cc(OC)c(OC)cc3N=C[C@@H]2C1	6.65
COC(=O)CC1=CN2C(=O)c3cc(OC)c(OCc4ccccc4)cc3N=C[C@@H]2C1	4.97

Test system: CH1
Assay: In vitro cytotoxicity of compound was determined against CH1 cell lines at 37 degree C after 96 hr
Assay type: functional, Homo sapiens
Conditions: not given

SMILES	Cytotoxicity [µM]
COc1cc2c(cc1OCc1ccccc1)N=C[C@@H]1CC(CC#N)=CN1C2=O	0.105
COc1cc2c(cc1OCc1ccccc1)N=C[C@@H]1CC(CCOC(C)=O)=CN1C2=O	0.105
Cc1ccc2c(c1O)N=C[C@@H]1CC(/C=C/C(N)=O)=CN1C2=O	0.062
COC(=O)CC1=CN2C(=O)c3cc(OC)c(OC)cc3N=C[C@@H]2C1	0.115
COc1cc2c(cc1OCc1ccccc1)N=C[C@@H]1CC(CCO)=CN1C2=O	0.09
COc1cc2c(cc1OCc1ccccc1)N=C[C@@H]1CCCN1C2=O	0.145
COC(=O)CC1=CN2C(=O)c3cc(OC)c(OCc4ccccc4)cc3N=C[C@@H]2C1	0.016

Test system: CH1
Assay: In vitro cytotoxicity of compound was determined against CH1 (cisplatin resistant) cell lines at 37 degree C after 96 hr
Assay type: functional, Homo sapiens
Conditions: not given

SMILES	Cytotoxicity [µM]
COc1cc2c(cc1OCc1ccccc1)N=C[C@@H]1CC(CC#N)=CN1C2=O	0.27
COc1cc2c(cc1OCc1ccccc1)N=C[C@@H]1CC(CCOC(C)=O)=CN1C2=O	0.16
Cc1ccc2c(c1O)N=C[C@@H]1CC(/C=C/C(N)=O)=CN1C2=O	0.05
COC(=O)CC1=CN2C(=O)c3cc(OC)c(OC)cc3N=C[C@@H]2C1	0.15
COc1cc2c(cc1OCc1ccccc1)N=C[C@@H]1CC(CCO)=CN1C2=O	0.037
COc1cc2c(cc1OCc1ccccc1)N=C[C@@H]1CCCN1C2=O	0.145
COC(=O)CC1=CN2C(=O)c3cc(OC)c(OCc4ccccc4)cc3N=C[C@@H]2C1	0.04

Test system: Nucleic Acid
Assay: Change in temperature (thermal denaturation) was determined from calf thymus DNA at 37 degree Celsius for 4 hours
Assay type: functional
Conditions: Bos taurus

SMILES	ΔTm [°C]
COc1cc2c(cc1OCc1ccccc1)N=C[C@@H]1CC(CC#N)=CN1C2=O	2.31
COc1cc2c(cc1OCc1ccccc1)N=C[C@@H]1CC(CCOC(C)=O)=CN1C2=O	2.11
Cc1ccc2c(c1O)N=C[C@@H]1CC(/C=C/C(N)=O)=CN1C2=O	11.2
COC(=O)CC1=CN2C(=O)c3cc(OC)c(OC)cc3N=C[C@@H]2C1	4.63
COc1cc2c(cc1OCc1ccccc1)N=C[C@@H]1CC(CCO)=CN1C2=O	4.61
COc1cc2c(cc1OCc1ccccc1)N=C[C@@H]1CCCN1C2=O	0.4
COC(=O)CC1=CN2C(=O)c3cc(OC)c(OCc4ccccc4)cc3N=C[C@@H]2C1	3.96

Test system: SK-OV-3
Assay: In vitro cytotoxicity of compound was determined against SKOV-3 cell lines at 37 degree C after 96 hr
Assay type: functional, Homo sapiens
Conditions: not given

SMILES	Cytotoxicity [µM]
COc1cc2c(cc1OCc1ccccc1)N=C[C@@H]1CC(CC#N)=CN1C2=O	0.52
COc1cc2c(cc1OCc1ccccc1)N=C[C@@H]1CC(CCOC(C)=O)=CN1C2=O	0.46
Cc1ccc2c(c1O)N=C[C@@H]1CC(/C=C/C(N)=O)=CN1C2=O	0.16
COC(=O)CC1=CN2C(=O)c3cc(OC)c(OC)cc3N=C[C@@H]2C1	0.45
COc1cc2c(cc1OCc1ccccc1)N=C[C@@H]1CC(CCO)=CN1C2=O	0.105
COc1cc2c(cc1OCc1ccccc1)N=C[C@@H]1CCCN1C2=O	0.46
COC(=O)CC1=CN2C(=O)c3cc(OC)c(OCc4ccccc4)cc3N=C[C@@H]2C1	0.12

Test system: not listed separately
Assay: Resistance factor of compound was determined from cisplatin resistant A2780 cell lines to that of A2780 cell lines
Assay type: functional
Conditions: not given

SMILES	Resistance factor
COc1cc2c(cc1OCc1ccccc1)N=C[C@@H]1CC(CC#N)=CN1C2=O	2.8
COc1cc2c(cc1OCc1ccccc1)N=C[C@@H]1CC(CCOC(C)=O)=CN1C2=O	2.7
Cc1ccc2c(c1O)N=C[C@@H]1CC(/C=C/C(N)=O)=CN1C2=O	1.03
COC(=O)CC1=CN2C(=O)c3cc(OC)c(OC)cc3N=C[C@@H]2C1	1.3
COc1cc2c(cc1OCc1ccccc1)N=C[C@@H]1CC(CCO)=CN1C2=O	1.5
COc1cc2c(cc1OCc1ccccc1)N=C[C@@H]1CCCN1C2=O	2.8
COC(=O)CC1=CN2C(=O)c3cc(OC)c(OCc4ccccc4)cc3N=C[C@@H]2C1	8.3

Test system: not listed separately
Assay: Resistance factor of compound was determined from cisplatin resistant CH1 cell lines to that of CH1 cell lines
Assay type: functional
Conditions: not given

SMILES	Resistance factor
COc1cc2c(cc1OCc1ccccc1)N=C[C@@H]1CC(CC#N)=CN1C2=O	2.6
COc1cc2c(cc1OCc1ccccc1)N=C[C@@H]1CC(CCOC(C)=O)=CN1C2=O	1.5
Cc1ccc2c(c1O)N=C[C@@H]1CC(/C=C/C(N)=O)=CN1C2=O	0.81
COC(=O)CC1=CN2C(=O)c3cc(OC)c(OC)cc3N=C[C@@H]2C1	1.3
COc1cc2c(cc1OCc1ccccc1)N=C[C@@H]1CC(CCO)=CN1C2=O	0.4
COc1cc2c(cc1OCc1ccccc1)N=C[C@@H]1CCCN1C2=O	1
COC(=O)CC1=CN2C(=O)c3cc(OC)c(OCc4ccccc4)cc3N=C[C@@H]2C1	2.5

Test system: Nucleic Acid
Assay: Change in temperature (thermal denaturation) was determined from calf thymus DNA at 37 degree Celsius for 18 hours
Assay type: functional
Conditions: Bos taurus

SMILES	ΔTm [°C]
COc1cc2c(cc1OCc1ccccc1)N=C[C@@H]1CC(CC#N)=CN1C2=O	4.31
COc1cc2c(cc1OCc1ccccc1)N=C[C@@H]1CC(CCOC(C)=O)=CN1C2=O	2.53
Cc1ccc2c(c1O)N=C[C@@H]1CC(/C=C/C(N)=O)=CN1C2=O	13
COc1cc2c(cc1OCc1ccccc1)N=C[C@@H]1CC(CCO)=CN1C2=O	5.6
COc1cc2c(cc1OCc1ccccc1)N=C[C@@H]1CCCN1C2=O	0.4
